Reference: PubChem BioAssay AID1645865 (Buhrlage Lab, Dana-Farber Cancer Institute and Novartis …, 2021)
pIC50: −log10 of the molar value. The source made the active and inactive calls.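 The calls were made as follows: active = maximal inhibition of the USP30 enzyme reaching 30% or more across the dose series; inactive = the rest.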

target: Ubiquitin carboxyl-terminal hydrolase 30 (Homo sapiens) (UniProt Q70CQ3); assay: ubiquitin-specific protease 30 DUB inhibitors, concentration-effect, biochemical, validation of primary actives (AID 1645865); conditions: purified USP30, Ub-rhodamine cleavage, fluorescence, 2 h
Sequence (Q70CQ3 whole entry, looked up): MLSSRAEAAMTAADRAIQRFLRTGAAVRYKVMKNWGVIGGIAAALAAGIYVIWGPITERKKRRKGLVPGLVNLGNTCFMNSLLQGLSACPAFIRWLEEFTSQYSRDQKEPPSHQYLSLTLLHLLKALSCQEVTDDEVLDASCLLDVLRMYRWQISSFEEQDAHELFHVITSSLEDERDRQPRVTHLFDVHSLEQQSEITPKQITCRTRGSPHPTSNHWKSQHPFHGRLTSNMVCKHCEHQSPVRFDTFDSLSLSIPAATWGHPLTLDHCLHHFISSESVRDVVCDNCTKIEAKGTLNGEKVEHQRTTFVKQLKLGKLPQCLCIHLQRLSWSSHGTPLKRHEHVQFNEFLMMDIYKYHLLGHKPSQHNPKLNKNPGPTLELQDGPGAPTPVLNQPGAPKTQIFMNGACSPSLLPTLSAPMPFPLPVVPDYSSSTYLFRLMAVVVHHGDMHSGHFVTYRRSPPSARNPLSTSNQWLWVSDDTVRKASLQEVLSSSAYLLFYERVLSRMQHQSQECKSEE

Row | SMILES | pIC50 | IC50
1 | COc1cccc2c1NC(=O)C21CCN(C(=O)Nc2cccc(C)c2)CC1 | 4.79 | 
2 | C=C(NC(=O)C(=C)NC(=O)c1csc(C2=N[C@@H]3c4csc(n4)[C@H]4NC(=O)c5csc(n5)[C@H]([C@](C)(O)[C@@H](C)O)NC(=O)[C@H]5CSC(=N5)/C(=C/C)NC(=O)C([C@@H](C)O)NC(=O)c5csc(n5)C3(CC2)NC(=O)[C@H](C)NC(=O)C(=C)NC(=O)[C@H](C)NC(=O)C([C@@H](C)CC)N[C@@H]2C=Cc3c(C(C)O)cc(nc3[C@H]2O)C(=O)OC4C)n1)C(N)=O (some centres not stated) |  | > 50 µM (inactive)
3 | COc1c2nc3ccccc3oc-2cc(=O)c1OC |  | > 50 µM (inactive)
4 | O=C(COc1nc2ccccc2nc1N1CCOCC1)Nc1cccc(S(=O)(=O)N2CCCCC2)c1 |  | > 50 µM (inactive)
5 | CCOc1ccc(NC(=O)COc2cccc(-n3cnnn3)c2)cc1 |  | > 50 µM (inactive)
6 | O=C(COC(=O)c1ccc2ncsc2c1)Nc1ccccc1F |  | > 50 µM (inactive)
7 | CC1(C)C[C@@H](O)[C@]2(C)CC[C@]3(C)C(=CCC4[C@@]5(C)CC[C@H](O)[C@](C)(CO)[C@@H]5CC[C@]43C)[C@@H]2C1 (some centres not stated) | 5.50 | 
8 | CC1(O)CC(=O)c2c(cc3cc(O)cc(O)c3c2O)C1 (configuration not stated) | 6.74 | 
9 | COc1ccc(NS(=O)(=O)c2cc(NC(=O)CCc3nc4ccccc4s3)ccc2C)cc1 | 4.58 | 
10 | COc1ccc(NC(=O)C2Oc3ccc(C)cc3NC2=O)cc1Cl (configuration not stated) | 4.71 | 
11 | c1ccc(-n2nnc(-c3noc(-c4cccnc4)n3)c2-c2ccncc2)cc1 | 4.59 | 
12 | CCOC(=O)c1ccc(NC(=O)C[n+]2cc(-c3ccc(Cl)cc3)n3c2CCC3)cc1 | 4.41 | 
13 | CCc1cc(C(=O)c2ccc(OC)cc2)c(NC(=O)CN2CCCCC2)s1 | 4.48 | 
14 | COc1ccc(C(=O)Nc2sc3c(c2C(=O)NCc2cccnc2)CCCC3)cc1 | 5.35 | 
15 | O=C(NCc1ccc(CN2CCCC2)cc1)c1cc2ccccc2[nH]c1=O |  | > 50 µM (inactive)
16 | CSc1nc(SCC(N)=O)c2c3c(sc2n1)COC(C)(C)C3 | 4.51 | 
17 | O=C(COc1cccc2ccc(N3CCC(Cc4ccccc4)CC3)nc12)NCc1ccc(F)cc1 | 4.64 | 
18 | O=S(=O)(c1cccc2cccnc12)N(CCc1ccccc1)C1CCN(CCc2ccc(Cl)cc2)CC1 |  | > 50 µM (inactive)
19 | CC1OC2CC(O)C1(O)C1=C2C(O)=C(C(N)=O)C(=N)C1=O (configuration not stated) |  | > 50 µM (inactive)
20 | O=C(COc1ccc(F)cc1)Nc1cc(F)c2nc(N3CCOCC3)ccc2c1 |  | > 50 µM (inactive)
21 | O=S(=O)(c1ccccc1Cl)N1CCN(c2ccc3nnc(-c4ccco4)n3n2)CC1 |  | > 50 µM (inactive)
22 | Cc1cccc(NC(=O)c2nc(N3CCSCC3)c3cnn(C)c3n2)c1 |  | > 50 µM (inactive)
23 | Cc1ccc(NC(=O)c2sc3ncn(CC(=O)N4CCN(c5ccccn5)CC4)c(=O)c3c2C)c(Br)c1 | 5.08 | 
24 | COc1cccc(NC(=O)C2CCN(C(=O)c3cc(-c4cccnc4)n[nH]3)CC2)c1 |  | > 50 µM (inactive)

Row | SMILES | pIC50 | IC50
25 | COc1ccc(-c2nc(Cn3nnc(C(=O)Nc4ccc(C)c(C)c4)c3N)c(C)o2)cc1 | 5.60 | 
26 | COc1ccc(-c2nc(SCC(=O)Nc3ccc(C(C)=O)cc3)n[nH]2)cc1 | 4.96 | 
27 | O=C(CSc1nnc(-c2ccncc2)n1Cc1ccccc1)c1ccc2[nH]c(O)cc2c1 |  | > 50 µM (inactive)
28 | COc1cc2c(cc1OC)-c1cc(NCc3cc(OC)c(OC)c(OC)c3)nc(=O)n1CC2 |  | > 50 µM (inactive)
29 | COc1cc2c(oc(=O)c3cc(C)cc(OC)c32)c2c([C@@H]3OC(C)[C@@H](O)[C@@](C)(O)C3O)ccc(O)c12 (some centres not stated) |  | > 50 µM (inactive)
30 | CC(C)c1cc(NCc2ccccc2)n2nc(-c3cccnc3)nc2n1 | 4.70 | 
31 | Fc1ccc(CN2CCc3nc4cccnc4cc3C2)cc1 |  | > 50 µM (inactive)
32 | COc1ccc(CNC(=O)CSc2nc3nc(C)ccc3o2)cc1 | 4.71 | 
33 | COc1ccc(/C=C/c2ccnc3nc(-n4cccc4)nn23)cc1 |  | > 50 µM (inactive)
34 | COCC(C)Nc1ncc(-c2cnccn2)c(-c2ccc(C)s2)n1 (configuration not stated) |  | > 50 µM (inactive)
35 | O=C(NCc1ccc(F)cc1)N1CCC2(C1)Nc1cccnc1NC2=NCc1ccccc1 (configuration not stated) |  | > 50 µM (inactive)
36 | Cc1cccc(NC(=O)CSc2nnc(-c3n[nH]c4c3CCC4)n2N)c1 | 4.59 | 
37 | CC1(C)CC(n2[nH]c(=O)c3c2NC(=O)CSC3c2ccc(OCc3ccccc3)cc2)CCO1 (configuration not stated) | 4.92 | 
38 | CN1c2ccccc2CN(CC(N)=O)CC1Cc1ccccc1 (configuration not stated) |  | > 50 µM (inactive)
39 | CSc1ccc(CNC(=O)CC2CCN(S(=O)(=O)c3ccc(C)cc3)CC2)cc1 | 4.69 | 
40 | Cc1cc(C)c2nc3c(cc2c1)CN(Cc1ccco1)C(=O)O3 |  | > 50 µM (inactive)
41 | CCC1=C(c2ccc(C)cc2)S(=O)(=O)NC1=NCC(=O)NC(C)c1ccccc1 (configuration not stated) | 4.67 | 
42 | CCC(=O)Nc1ccc2c(c1)nc(CSc1nccc(C)n1)n2CC |  | > 50 µM (inactive)
43 | CCn1c(SCc2cccc(C)c2)nnc1-c1cnccn1 |  | > 50 µM (inactive)
44 | CC1=C(c2ccc(F)cc2)S(=O)(=O)NC1=NCC(=O)Nc1cccc(F)c1 | 4.70 | 
45 | COc1cc(C2SCC(=O)Nc3c2c(-c2ccccc2)nn3-c2ccccc2)cc(OC)c1OC (configuration not stated) |  | > 50 µM (inactive)
46 | COc1cc(OC)c(NC(=O)Cn2c(=O)n(Cc3ccccc3Cl)c(=O)c3cc(OC)c(OC)cc32)cc1Cl | 5.64 | 
47 | Cc1ccccc1-c1noc(-c2ccccc2OCC(=O)NC(C)C)n1 |  | > 50 µM (inactive)
